Here are results for two compounds from patent US12422427B2, “Compounds for treatment of diseases and methods of screening therefor” (Max-Planck-Gesellschaft zur Förderung der Wissenschaften …, priority 2018, dated 2025).

SMILES strings stand for the structures.

One series concerns the target T1, G156E FUS GFP (Homo sapiens, UniProt P35637, G156E).
T1 construct: His MBP (N, cleaved yes); made in house; host or cells: baculovirus/insect cell expression system
T1 sequence (P35637 1-526 G156E): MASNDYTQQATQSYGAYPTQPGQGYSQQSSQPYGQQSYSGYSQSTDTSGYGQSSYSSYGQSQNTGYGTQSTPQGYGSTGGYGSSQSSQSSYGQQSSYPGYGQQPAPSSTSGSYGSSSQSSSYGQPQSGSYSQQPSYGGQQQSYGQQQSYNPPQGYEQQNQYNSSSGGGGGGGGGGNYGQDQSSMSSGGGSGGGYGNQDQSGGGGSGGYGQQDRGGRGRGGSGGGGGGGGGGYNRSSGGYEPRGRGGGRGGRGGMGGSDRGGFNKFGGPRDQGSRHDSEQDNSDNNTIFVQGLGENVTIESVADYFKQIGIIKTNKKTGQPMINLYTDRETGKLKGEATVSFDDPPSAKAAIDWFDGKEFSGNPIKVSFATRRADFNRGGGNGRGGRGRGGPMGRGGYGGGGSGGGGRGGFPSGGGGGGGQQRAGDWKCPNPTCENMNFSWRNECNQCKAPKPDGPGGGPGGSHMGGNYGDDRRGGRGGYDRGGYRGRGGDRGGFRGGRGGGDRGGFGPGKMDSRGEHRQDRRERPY
The experiment in a line: In vitro FUS GFP solidification (aging, fibre formation, FRAP). The settings on record: for fibre formation of G156E FUS / hardening of FUS droplets (FRAP mobile fraction): 30 μM, aging while shaking, 1 mM DTT. The class given is biochemical. As for the experimental part:
Therefore, hardening and fibre formation, another kinetic phenomenon, were analysed. In vitro FUS droplets ‘age’ over time, first hardening then tending to form amyloid/prion-like fibres. This is accelerated for G156E FUS, a mutation associated with familial ALS.
For in vitro solidification assays, FUS GFP in storage buffer was diluted in water to give 10 μM FUS, 50 mM Tris·HCl pH 7.4 and 1 mM DTT in a 20 μl volume in non-binding clear bottom 384 well plates (Greiner Bio-One, 781906). […] Fibre and droplet formation were analysed by widefield epifluorescence using a DeltaVision Elite microscope (GE Healthcare Life Sciences) with a Plan ApoN 60× NA 1.4 oil immersion objective (Olympus) and an sCMOS camera (PCO). For salt sensitivity of droplet formation FUS GFP in storage buffer was diluted in the appropriate concentration of KCl pre-mixed with compound or DMSO to generate the final KCl concentration series with 30 μM compound concentration and 0.3% DMSO.
Fluorescence recovery after photobleaching (FRAP) of FUS GFP droplets and fibres was performed on a Nikon TiE inverted microscope with a Nikon Apo 100× NA 1.49 oil immersion objective using a Yokogawa CSU-X1 spinning disc head and an Andor iXon EM+ DU-897 EMCCD camera. 10×10 px regions were bleached for […] with a 6 mW 405 nm laser using an Andor FRAPPA beam delivery unit then imaged for 5 min at 5 Hz. Recovery curve half-life and mobile fraction were calculated in ImageJ.

The test system of series [1] is iPS MNs expressing P525L FUS. The series is described as follows: Axon dieback of iPS-derived motor neurons expressing P525L FUS. Format: cell-based, human. The settings on record: 2 μM in culture medium, 60 days. The text has this:
In humans, one cause of familial ALS is FUS mutation, particularly in the C terminal NLS. P525L is one such mutation, and iPSC-derived motor neurons (iPSC MNs) expressing P525L from ALS patients show defects consistent with motor neuron defects in the patient. iPSC MNs can be grown through silicone channels, positioning the soma on one side with the axons protruding through the channels to the far side. Such cultures can be maintained for long periods (>60 days). However, when expressing P525L FUS, the axons die back within this time period without exogenous cell stressors, although P525L FUS MNs have a greater propensity to form stress granules. This is similar to axon retraction leading to motor dysfunction in patients. Therefore whether lipoamide or lipoic acid was able to improve these phenotypes was tested. […] To test this the inventors analysed transport of lysosomes within the axons of iPS MNs expressing P525L FUS with or without lipoamide in comparison to iPS MNs expressing WT FUS (FIGS. 12A-12B). […]
For analysis of axon dieback transport AH-ALS1-F58 iPS MNs expressing P525L FUS or an isogenic control expressing WT FUS were grown with 2 μM compound or an equal volume of DMSO for 60 days. […] Experiments and analysis were performed blinded, and axonal dieback was scored qualitatively using phase contrast images captured every 10 to 20 days.

Series [2] concerns HeLa cells expressing FUS GFP. The experiment in a line: Stress granule formation in HeLa FUS GFP cells under different stresses. The class given is cell-based. The following applies: 10 μM; mitochondrial (rotenone), hyperosmotic (sorbitol) or arsenate stress. Here is the method: The stressor, arsenate, will react with the thiol groups of lipoamide. Therefore, to exclude the possibility that lipoamide is acting only by removing the stressor, so it was further tested whether lipoic acid can prevent stress granule formation triggered by other stresses than arsenate (an oxidative) stress: Mitochondrial electron transport chain inhibition (rotenone), heat stress (42° C.), hyperosmotic stress (sorbitol, a non-metabolisable sugar), glycolysis inhibition ([…] in the absence of glucose) or serum starvation.
Various cellular stresses were achieved by replacing 1 h 1 mM potassium arsenate treatment with other conditions: 100 μM rotenone (R8875, Sigma Aldrich) from a 1 M stock in DMSO for 2 h (mitochondrial stress). […] Sorbitol (S1876, Sigma Aldrich) from a 4 M stock in H2O for 1 h (osmotic stress). 42° C. in normal growth medium for 30 m (heat stress). […] Appropriate solvent controls were used.

For series [3] the following is noted: in vivo; cited from earlier work.

In the case of `NC(=O)CCCCC1CCSS1` (racemic) [lipoamide, 5-(1,2-dithiolan-3-yl)pentanamide], the “FRAP of aged G156E FUS GFP condensates” value on G156E FUS GFP (10 μM lipoamide, dextran crowding, vs 0.1% DMSO) is “maintain large FUS GFP mobile fraction and short FRAP half-life”. At G156E FUS GFP, the “fibre formation of G156E FUS” value was “delayed fibre formation” and the “hardening of FUS droplets (FRAP mobile fraction)” value is listed as “delayed hardening of FUS droplets”. The axon die back result in series [1] is “prevented such die back”. Moreover, the stress granule formation result in series [2] is given as “reduced stress granule formation”. In addition, the toxicity entry in series [3] is on record as “non-toxic”.
For the compound `O=C(O)CCCCC1CCSS1` (racemic) [lipoic acid, 5-(1,2-dithiolan-3-yl)pentanoic acid], on G156E FUS GFP, the “fibre formation of G156E FUS” value was “delayed fibre formation” and the “hardening of FUS droplets (FRAP mobile fraction)” value is “delayed hardening of FUS droplets”. The axon die back result in series [1] is on record as “prevented such die back”. In series [2], the stress granule formation result is “reduced stress granule formation”. For the same compound, the toxicity entry in series [3] was “non-toxic”.
